Data taken from patent US20240034736A1, “HSD17B13 INHIBITORS AND USES THEREOF” (FL2022-001, Inc., priority 2020, published 2024).
pIC50: −log10 of the molar value.

Molecular target: Recombinant human HSD17B13 enzyme (Homo sapiens (Human), UniProt Q7Z5P4)
Experiment: HSD17b13 NAD(P)H-Glo Biochemical Assay
Details: 50 uM estradiol, 1 mM NAD+; read-out: HSD17β13 IC50
Procedure: Recombinant human HSD17B13 enzyme. Substrate: estradiol (Sigma β-Estradiol E8875), 100 mM in DMSO. […] Assay buffer final concentration: 20 mM Tris pH7.4 with 0.002% Tween-20 and 0.02% BSA. […] Enzymatic activity detected by NAD(P)H-Glo™ Detection System (Promega G9062).
Inhibitor compounds were serially diluted in DMSO and then further diluted in assay buffer to a 10× concentration consisting of 1% DMSO.
HSD17b13 enzyme was diluted in 1× assay buffer to the desired enzyme concentration based on the specific activity of the enzyme lot. 20 uL of diluted enzyme was added to each well along with 2.5 uL of 10× inhibitor solution. Assay plate was incubated at RT for 20 minutes, and then 2.5 uL of a 10× substrate/cofactor mix was added to each well for a final concentration of 50 uM estradiol and 1 mMNAD+. Assay plate was incubated at 37° C. for 3 hours. NAD(P)H-Glo™ Detection System reagents were prepared according to manufacturer's specifications, and 25 uL was added to each well. After incubating for 1 hour at RT, luminescence was measured.

Sequence of Recombinant human HSD17B13 enzyme (Q7Z5P4 20-300): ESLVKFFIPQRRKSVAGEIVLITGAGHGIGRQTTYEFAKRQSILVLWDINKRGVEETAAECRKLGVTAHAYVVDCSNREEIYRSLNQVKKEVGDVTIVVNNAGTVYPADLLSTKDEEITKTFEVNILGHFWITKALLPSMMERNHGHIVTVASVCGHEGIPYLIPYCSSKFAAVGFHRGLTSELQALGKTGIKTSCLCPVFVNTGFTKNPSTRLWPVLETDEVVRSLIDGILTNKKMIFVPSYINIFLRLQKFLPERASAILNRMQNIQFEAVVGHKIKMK

SMILES	pIC50
Oc1ccc(F)c(-n2ncc3cc(-c4ccc(O)c(Cl)c4)ccc32)c1 [Compound 1, 2-Chloro-4-(1-(2-fluoro-5-hydroxyphenyl)-1H-indazol-5-yl)phenol]	4.52 to 6.00
Oc1cc(-n2ncc3cc(-c4cccc(Cl)c4)ccc32)ccc1F [Compound 1.01, 5-(5-(3-Chlorophenyl)-1H-indazol-1-yl)-2-fluorophenol]	6.00 to 7.00
COc1ccc(-c2ccc3c(cnn3-c3cc(O)c(F)c(C(F)(F)F)c3)c2)cc1Cl [Compound 1.02, 5-(5-(3-Chloro-4-methoxyphenyl)-1H-indazol-1-yl)-2-fluoro-3-(trifluoromethyl)phenol]	6.00 to 7.00
COc1ccc(-c2ccc3c(cnn3-c3cc(O)c(F)c(F)c3F)c2)cc1Cl [Compound 1.03, 5-(5-(3-Chloro-4-methoxyphenyl)-1H-indazol-1-yl)-2,3,4-trifluorophenol]	6.00 to 7.00
Oc1ccc(-c2ccc3c(cnn3-c3cc(O)c(F)c(C(F)(F)F)c3)c2)cc1Cl [Compound 1.04, 5-(5-(3-Chloro-4-hydroxyphenyl)-1H-indazol-1-yl)-2-fluoro-3-(trifluoromethyl)phenol]	> 7.00
Oc1ccc(-c2ccc3c(cnn3-c3cc(O)c(F)c(F)c3F)c2)cc1Cl [Compound 1.05, 5-(5-(3-Chloro-4-hydroxyphenyl)-1H-indazol-1-yl)-2,3,4-trifluorophenol]	6.00 to 7.00
Oc1cc(-n2ccc3cc(-c4ccc(O)c(Cl)c4)ccc32)ccc1F [Compound 1.06, 2-Chloro-4-(1-(4-fluoro-3-hydroxyphenyl)-1H-indol-5-yl)phenol]	6.00 to 7.00
COc1ccc(-c2ccc3c(cnn3-c3ccc(F)c(O)c3)c2)cc1Cl [Compound 2, 5-(5-(3-Chloro-4-methoxyphenyl)-1H-indazol-1-yl)-2-fluorophenol]	6.00 to 7.00
O=C(O)Cc1ccc(-c2ccc3c(cnn3-c3ccc(F)c(O)c3)c2)cc1 [Compound 2.01, 2-(4-(1-(4-Fluoro-3-hydroxyphenyl)-1H-indazol-5-yl)phenyl)acetic acid]	4.52 to 6.00
Oc1cc(F)cc(-n2ncc3cc(-c4ccc(O)c(Cl)c4)ccc32)c1 [Compound 3, 2-Chloro-4-(1-(3-fluoro-5-hydroxyphenyl)-1H-indazol-5-yl)phenol]	4.52 to 6.00
Oc1ccc(-c2ccc3c(cnn3-c3cccc(O)c3F)c2)cc1Cl [Compound 3.01, 3-(5-(3-Chloro-4-hydroxyphenyl)-1H-indazol-1-yl)-2-fluorophenol]	6.00 to 7.00
Oc1ccc(-c2ccc3c(cnn3-c3ccc(C(F)(F)F)c(O)c3)c2)cc1Cl [Compound 3.02, 2-Chloro-4-(1-(3-hydroxy-4-(trifluoromethyl)phenyl)-1H-indazol-5-yl)phenol]	4.52 to 6.00
Oc1ccc(-c2ccc3c(cnn3-c3cc(O)c(F)c(F)c3)c2)cc1Cl [Compound 3.03, 5-(5-(3-Chloro-4-hydroxyphenyl)-1H-indazol-1-yl)-2,3-difluorophenol]	6.00 to 7.00
Oc1cc(-n2ncc3cc(-c4ccc(O)c(Cl)c4)ccc32)cc(C(F)(F)F)c1 [Compound 3.04, 2-Chloro-4-(1-(3-hydroxy-5-(trifluoromethyl)phenyl)-1H-indazol-5-yl)phenol]	6.00 to 7.00
Oc1cccc(-n2ncc3cc(-c4ccc(O)c(Cl)c4)ccc32)c1 [Compound 3.05, 2-Chloro-4-(1-(3-hydroxyphenyl)-1H-indazol-5-yl)phenol]	4.52 to 6.00
Oc1cc(-n2ncc3cc(-c4ccc(O)c(Cl)c4)ccc32)ccc1F [Compound 4, 2-Chloro-4-(1-(4-fluoro-3-hydroxyphenyl)-1H-indazol-5-yl)phenol]	6.00 to 7.00
Oc1cc(-n2ncc3cc(-c4ccc(O)c(Cl)c4)ccc32)ccc1F [Compound 5, 2-Chloro-4-(1-(4-fluoro-3-hydroxyphenyl)-1H-indazol-5-yl)phenol]	6.00 to 7.00

Continued, values first:

pIC50	SMILES
6.00 to 7.00	Oc1ccc(-c2ccc3c(cnn3-c3ccc(F)c(O)c3)c2)cc1 [Compound 4.01, 2-Fluoro-5-(5-(4-hydroxyphenyl)-1H-indazol-1-yl)phenol]
6.00 to 7.00	CS(=O)(=O)Nc1ccc(-c2ccc3c(cnn3-c3ccc(F)c(O)c3)c2)cc1 [Compound 4.02, N-(4-(1-(4-Fluoro-3-hydroxyphenyl)-1H-indazol-5-yl)phenyl)methanesulfonamide]
6.00 to 7.00	Oc1cccc(-c2ccc3c(cnn3-c3ccc(F)c(O)c3)c2)c1 [Compound 4.03, 2-Fluoro-5-(5-(3-hydroxyphenyl)-1H-indazol-1-yl)phenol]
4.52 to 6.00	CS(=O)(=O)Nc1cccc(-c2ccc3c(cnn3-c3ccc(F)c(O)c3)c2)c1 [Compound 4.04, N-(3-(1-(4-Fluoro-3-hydroxyphenyl)-1H-indazol-5-yl)phenyl)methanesulfonamide]
6.00 to 7.00	Cc1nn(-c2ccc(F)c(O)c2)c2ccc(-c3ccc(O)c(Cl)c3)cc12 [Compound 4.05, 2-Chloro-4-(1-(4-fluoro-3-hydroxyphenyl)-3-methyl-1H-indazol-5-yl)phenol]
6.00 to 7.00	Oc1cc(-n2cc3cc(-c4ccc(O)c(Cl)c4)ccc3n2)ccc1F [Compound 4.06, 2-Chloro-4-(2-(4-fluoro-3-hydroxyphenyl)-2H-indazol-5-yl)phenol]
6.00 to 7.00	Cc1ccc(-c2ccc3c(cnn3-c3ccc(F)c(O)c3)c2)cc1 [Compound 4.07, 2-Fluoro-5-(5-(p-tolyl)-1H-indazol-1-yl)phenol]
4.52 to 6.00	Cc1cccc(-c2ccc3c(cnn3-c3ccc(F)c(O)c3)c2)c1 [Compound 4.08, 2-Fluoro-5-(5-(m-tolyl)-1H-indazol-1-yl)phenol]
6.00 to 7.00	Oc1cc(-n2ncc3cc(-c4ccc(Cl)cc4)ccc32)ccc1F [Compound 4.09, 5-(5-(4-Chlorophenyl)-1H-indazol-1-yl)-2-fluorophenol]
6.00 to 7.00	Oc1ccc(-c2ccc3c(cnn3-c3cc(O)c(F)c(F)c3)c2)c(Cl)c1 [Compound 4.10, 5-(5-(2-Chloro-4-hydroxyphenyl)-1H-indazol-1-yl)-2,3-difluorophenol]
6.00 to 7.00	Oc1cc(-n2ncc3cc(-c4ccccc4Cl)ccc32)ccc1F [Compound 4.11, 5-(5-(2-Chlorophenyl)-1H-indazol-1-yl)-2-fluorophenol]
6.00 to 7.00	Cc1ccccc1-c1ccc2c(cnn2-c2ccc(F)c(O)c2)c1 [Compound 4.12, 2-Fluoro-5-(5-(o-tolyl)-1H-indazol-1-yl)phenol]
6.00 to 7.00	Oc1cc(-n2ncc3cc(-c4ccc(O)c(Cl)c4)ncc32)ccc1F [Compound 4.13, 2-Chloro-4-(1-(4-fluoro-3-hydroxyphenyl)-1H-pyrazolo[3,4-c]pyridine-5-yl)phenol]
6.00 to 7.00	Oc1cc(-n2nc(Cl)c3cc(-c4ccc(O)c(Cl)c4)ccc32)ccc1F [Compound 4.14, 2-Chloro-4-(3-chloro-1-(4-fluoro-3-hydroxyphenyl)-1H-indazol-5-yl)phenol]
6.00 to 7.00	N#Cc1nn(-c2ccc(F)c(O)c2)c2ccc(-c3ccc(O)c(Cl)c3)cc12 [Compound 4.15, 5-(3-Chloro-4-hydroxyphenyl)-1-(4-fluoro-3-hydroxyphenyl)-1H-indazole-3-carbonitrile]
6.00 to 7.00	Oc1ccc(-c2cc3cnn(-c4cc(O)c(F)c(F)c4)c3cc2Cl)cc1Cl [Compound 4.16, 5-(6-Chloro-5-(3-chloro-4-hydroxyphenyl)-1H-indazol-1-yl)-2,3-difluorophenol]
6.00 to 7.00	Oc1ccc(-c2cc3cnn(-c4cc(O)c(F)c(F)c4)c3cc2Cl)c(Cl)c1 [Compound 4.17, 5-(6-Chloro-5-(2-chloro-4-hydroxyphenyl)-1H-indazol-1-yl)-2,3-difluorophenol]
6.00 to 7.00	Oc1cc(-n2ncc3cc(-c4ccc(Cl)c(O)c4)ccc32)ccc1F [Compound 5.01, 2-Chloro-5-(1-(4-fluoro-3-hydroxyphenyl)-1H-indazol-5-yl)phenol]
6.00 to 7.00	Cc1cc(-c2ccc3c(cnn3-c3ccc(F)c(O)c3)c2)ccc1O [Compound 5.02, 4-(1-(4-Fluoro-3-hydroxyphenyl)-1H-indazol-5-yl)-2-methylphenol]
6.00 to 7.00	COc1ccc(-c2ccc3c(cnn3-c3ccc(F)c(O)c3)c2)c(Cl)c1 [Compound 5.03, 5-(5-(2-Chloro-4-methoxyphenyl)-1H-indazol-1-yl)-2-fluorophenol]
6.00 to 7.00	NS(=O)(=O)c1ccc(-c2ccc3c(cnn3-c3ccc(F)c(O)c3)c2)cc1 [Compound 5.04, 4-(1-(4-Fluoro-3-hydroxyphenyl)-1H-indazol-5-yl)benzenesulfonamide]
6.00 to 7.00	CS(=O)(=O)c1ccc(-c2ccc3c(cnn3-c3ccc(F)c(O)c3)c2)cc1 [Compound 5.05, 2-Fluoro-5-(5-(4-(methylsulfonyl)phenyl)-1H-indazol-1-yl)phenol]
6.00 to 7.00	Oc1cc(-n2ncc3cc(-c4ccc(OC(F)(F)F)cc4Cl)ccc32)ccc1F [Compound 5.06, 5-(5-(2-Chloro-4-(trifluoromethoxy)phenyl)-1H-indazol-1-yl)-2-fluorophenol]
6.00 to 7.00	N#Cc1cc(O)ccc1-c1ccc2c(cnn2-c2ccc(F)c(O)c2)c1 [Compound 5.07, 2-(1-(4-Fluoro-3-hydroxyphenyl)-1H-indazol-5-yl)-5-hydroxybenzonitrile]
6.00 to 7.00	Oc1cc(-n2ncc3cc(-c4ccc(OC(F)F)cc4Cl)ccc32)ccc1F [Compound 5.08, 5-(5-(2-Chloro-4-(difluoromethoxy)phenyl)-1H-indazol-1-yl)-2-fluorophenol]
4.52 to 6.00	Oc1cc(-n2ncc3cc(-c4ccc(N5CCOCC5)cc4Cl)ccc32)ccc1F [Compound 5.09, 5-(5-(2-Chloro-4-morpholinophenyl)-1H-indazol-1-yl)-2-fluorophenol]
